Data taken from US11246945B2, “Cisplatin-loaded microbubbles, pharmaceutical composition for treatment of cancer, method for preparing pharmaceutical compositions and method for treating cancer” (National Defense Medical Center, priority 2019, dated 2022).

Experiments:
[1] = intraperitoneal, single 14 mg/kg or 4.6 mg/kg/day for three consecutive days; cited from earlier work
[2] = Body weight during the 33-day treatment; format: in vivo, SCID mice; conditions: 33-day treatment period; without ultrasound
Description: Severe combined immunodeficiency (SCID) mice were subcutaneously implanted with luminescence-labelled hypopharynx carcinoma cell line (FaDu-fLuc/GFP) (2×10^6 cells/mouse) into the right flank region on Day 0. On Day 4, tumor xenograft formation and size in implanted SCID mice were determined by IVIS® bioluminescence imaging system (version 4.4, Caliper Life Sciences, Alameda, Calif., USA). The implanted SCID mice were then classified into group I to group V (hereinafter referred to as “Gps I-V”), and the implanted SCID mice of each group were treated with different pharmaceutical compositions, which are summarized in Table 6 below. Specifically, the mice of Gp I was the control group, and was treated with saline. The mice of Gp II were treated with cisplatin dissolved in saline. The mice of Gp III were treated with saline containing the mixture of cisplatin and albumin microbubbles (concentration: 1.4×10^8 particles/mL), followed by ultrasound exposure (power: 3 W/cm^2, 30 seconds). […] The anti-tumor effect of cisplatin-based chemotherapy was evaluated in vivo on the growth of head and neck cancer by twice-weekly recordings of luciferase bioluminescence data derived from IVIS® images. On day 33, after the IVIS® images of the mice were obtained, the mice were sacrificed and analysed. […]

[3] = system: FaDu-fLuc/GFP tumor xenograft; experiment: Anti-tumor effect on head and neck cancer xenograft (IVIS bioluminescence); format: in vivo, SCID mice; conditions: Day 33; without ultrasound exposure
Description: Severe combined immunodeficiency (SCID) mice were subcutaneously implanted with luminescence-labelled hypopharynx carcinoma cell line (FaDu-fLuc/GFP) (2×10^6 cells/mouse) into the right flank region on Day 0. On Day 4, tumor xenograft formation and size in implanted SCID mice were determined by IVIS® bioluminescence imaging system (version 4.4, Caliper Life Sciences, Alameda, Calif., USA). The implanted SCID mice were then classified into group I to group V (hereinafter referred to as “Gps I-V”), and the implanted SCID mice of each group were treated with different pharmaceutical compositions, which are summarized in Table 6 below. Specifically, the mice of Gp I was the control group, and was treated with saline. The mice of Gp II were treated with cisplatin dissolved in saline. The mice of Gp III were treated with saline containing the mixture of cisplatin and albumin microbubbles (concentration: 1.4×10^8 particles/mL), followed by ultrasound exposure (power: 3 W/cm^2, 30 seconds). […] The anti-tumor effect of cisplatin-based chemotherapy was evaluated in vivo on the growth of head and neck cancer by twice-weekly recordings of luciferase bioluminescence data derived from IVIS® images. On day 33, after the IVIS® images of the mice were obtained, the mice were sacrificed and analysed.

head and neck cancers = conditions: patients with head and neck cancers; cited from earlier work

## N.N.[Cl][Pt][Cl] [CDDP, Cis-Diamine platinum (II) Dichloride]
[1]
  Hearing threshold: caused a hearing threshold shift
[2]
  Body weight gain compared with Gp I, Gp IV and Gp V: statistically smaller body weight gain
[3]
  Tumor reduction / inhibition of tumor growth (luminescence flux): significantly better outcomes as compared to Gp IV
Head and neck cancers
  Median survival time: 151 days
